# Values joined by “and” are separate entries in the source; they are usually repeats but may differ in a detail not shown here. Equal entries are not always repeated.
# Key:
# [1] = biological target: T1, RNA-protein complexes of GST-hnRNP-E1 and 25-nt hnRNP-E1 mRNA cis-element (Homo sapiens, UniProt Q15365, A205V); assay: Gel-shift assay: effect of thiols, iron and deferoxamine on RNA-protein complex formation; format: binding; details: 100-μM thiol
# T1 construct: made in house; host or cells: Escherichia coli BL21
# T1 sequence (Q15365 whole entry A205V, one chain of several): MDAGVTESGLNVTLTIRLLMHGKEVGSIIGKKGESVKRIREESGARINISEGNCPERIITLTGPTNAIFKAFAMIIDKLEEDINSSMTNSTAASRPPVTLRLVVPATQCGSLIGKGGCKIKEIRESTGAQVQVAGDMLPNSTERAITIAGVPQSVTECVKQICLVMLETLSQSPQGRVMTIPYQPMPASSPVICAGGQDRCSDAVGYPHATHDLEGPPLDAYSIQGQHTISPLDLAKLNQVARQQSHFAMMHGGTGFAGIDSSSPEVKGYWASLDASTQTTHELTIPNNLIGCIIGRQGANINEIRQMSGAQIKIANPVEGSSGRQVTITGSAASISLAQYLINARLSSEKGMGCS
# [2] = biological target: hnRNP-E1 binding to folate receptor mRNA and hnRNP-E1 mRNA cis-element (Homo sapiens, UniProt Q15365); details: physiologically relevant thiols; cited from earlier work
# hnRNP-E1 binding to folate receptor mRNA and hnRNP-E1 mRNA cis-element, sequence (Q15365 whole entry): as the sequence (Q15365 whole entry A205V, one chain of several) above, with V205A counted along it
# [3] = system: folate receptor-α mRNA; assay: In vitro translation of folate receptor-α; format: biochemical, human
# Protocol: (§1) In vitro transcription-translation was carried out using the Linked SP6/T7 In Vitro Transcription/Translation Kit (Roche Applied Science) after addition of one of various targeted DNAs—pSPT18-25-hnRNP-E1 DNA, or Pst1-linearized plasmid pSPT18-folate receptor-α, or HPV16 L2 DNA, (0.5 μg/reaction)—to the transcription mix as described. In other experiments, the capacity for perturbing the interaction of hnRNP-E1 with the 25-nt hnRNP-E1 cis-element during in vitro translation was assessed in the presence of either scrambled oligonucleotides (5′-GCGTCGCTCGCTTCGCACGTGCGCC-3′ SEQ ID NO:20) or specific antisense oligonucleotides (5′-GGG AGC GAG CGG GCG GGA G-3′ SEQ ID NO:21) generated against the 25-nt hnRNP-E1 mRNA cis-element (GenScript USA, Piscataway, N.J.).
# [4] = system: hnRNP-E1 mRNA; assay: In vitro translation of hnRNP-E1; format: biochemical, human; details: agent added to translation mixture (4.1-mM ß-ME)
# Protocol: as §1, with “(5′-[…]-3′” for “(5′-GCGTCGCTCGCTTCGCACGTGCGCC-3′”, “(5′-[…]-3′” for “(5′-GGG AGC GAG CGG GCG GGA G-3′”
# [5] = system: newly synthesized [^35S]hnRNP-E1 in placental 1584-HF cells; assay: Biosynthetic rate of hnRNP-E1 after oligonucleotide transfection into placental 1584-HF cells; format: cell-based, human; details: oligonucleotide transfected into placental 1584-HF cells
# From the text: On the day before transfection, placental 1584-HF cells were trypsinized, counted, and plated in 6-well plates at 2×10^5 cells per well in 2.5-mL of MEM-HF medium, so that cells would be 70-80% confluent after overnight culture. Cells were then transfected with either wild-type, or scrambled DNA, or antisense DNA to 25-nt hnRNP-E1 cis-element using Lipofectamine 2000 DNA transfection reagent and the manufacturer's protocol. One well of cells was trypsinized and harvested on day-3 (2 days after transfection) as a control. Cells in the remaining 5 wells were starved of cysteine using cysteine-free MEM-HF for 4-h following which the rate of biosynthesis of hnRNP-E1 protein was determined in transfected cells by specifically immunoprecipitating and quantifying newly synthesized [^35S]hnRNP-E1.
# [6] = system: newly synthesized [^35S]folate receptors in placental 1584-HF cells; assay: Biosynthetic rate of folate receptors after protein transfection into placental 1584-HF cells; format: cell-based, human; details: protein transfected in placental 1584-HF cells
# From the text: (§2) Transfection of purified recombinant wild-type or various mutant hnRNP-E1 proteins into cells was achieved using the Xfect™ Protein Transfection Kit (Clontech, Mountain View, Calif.). Briefly, placental 1584-HF cells in 10-cm dishes at 70-80% confluence were transfected with 2.4-mL serum-free medium and Xfect Protein Transfection Reagent (1.2-mL) containing 20-μg of either wild-type hnRNP-E1-, or highest-affinity (HA)-hnRNP-E1(C293S)-mutant, or wild-type-like hnRNP-E1 (G292A)-mutant proteins and 2-μg of ß-galactosidase at 37° C. for 60-min. After cysteine-starvation for 4-h, an aliquot of cells were assessed for ß-galactosidase activity (to measure the efficiency of co-transfection of ß-galactosidase) and the remaining cells were pulsed with L-[^35S]cysteine (250-μCi) and assessed for specific [^35S]cysteine incorporated into folate receptor to determine the biosynthetic rate of this protein. A similar protocol was employed for analysis of newly synthesized [^35S]hnRNP-E1 using anti-hnRNP-E1 antiserum-coupled agarose and control agarose in order to derive values for specific [^35S]cysteine incorporated into hnRNP-E1 and thereby determine the biosynthetic rate of this protein.
# [7] = system: 25-nt hnRNP-E1 mRNA cis-element; assay: Gel-shift assay of hnRNP-E1 proteins with 25-nt hnRNP-E1 mRNA cis-element; format: binding, human; details: absence of L-homocysteine
# Protocol: (§3) Parenthetically, there was no significant difference in RNA binding to GST-hnRNP-E1 by use of either 32P-RNA probes or 35S-labeled RNA probes used. Other studies assessed the effect of iron(II) or iron(III) on homocysteine-induced RNA-protein interactions.
# Recombinant GST-plasmid DNA, pGST-hnRNP-E1, pGST-hnRNP-E2, and related engineered variant plasmids were transformed into BL21 Escherichia coli from Novagen (Madison, Wis.). After induction by 1 mM isopropyl-1-thio-ß-D-galactopyranoside, the GST-hnRNP-E1 and engineered variant fusion proteins were individually purified using the B-PER GST Fusion Protein Purification Kit (Pierce, Rockford, Ill.). The eluted GST fusion proteins were dialyzed against 500 volumes of buffer to remove excess reducing reagents (such as dithiothreitol (DTT)) and assayed by SDS-PAGE and Western blots using anti-peptide hnRNP-E1 antiserum. Gel shift assays with target RNA were carried out as described.
# [8] = biological target: [^35S]25-nt hnRNP-E1 mRNA cis-element; assay: Dissociation constant (KD) of GST-hnRNP-E1 or its mutant proteins for the 25-nt hnRNP-E1 mRNA cis-element; format: binding, human; details: L-Homocysteine 0 μM
# Protocol: (§4) Methods for testing the ability of an engineered hnRNP-E1 variant polypeptide to bind to an RNA comprising the sequence of SEQ ID NO:6 are known in the art. Such methods include, but are not limited to, RNA electrophoretic mobility shift assays, as exemplified herein, RNA pull-down assays, and oligonucleotide-targeted RNase H protection assays. Such assays are conducted in the presence or absence of homocysteine to determine the RNA-binding dependence of any particular hnRNP-E1 polypeptide tested on the presence of homocysteine. […] Additional methods are outline in Tang et al. (“Incrimination of heterogeneous nuclear ribonucleoprotein E1 (hnRNP-E1) as a candidate sensor of physiological folate deficiency.” J Biol Chem. 2011; 286(45):39100-39115), which is incorporated herein in its entirety.
# (§5) Specific binding was determined by subtracting values of non-specific binding with GST from those of total binding with GST-hnRNP-E1; (however, in Table 1 and FIG. 6G, non-specific binding using bovine serum albumin (BSA) was subtracted from total binding to GST-hnRNP-E1 to determine specific binding). The KD was calculated from a Scatchard plot using GraphPad Prism 6 from GraphPad Software (San Diego, Calif.), as previously described in the art.
# [9] = system: HPV16 L2 RNA; assay: In vitro translation of HPV16 L2 protein; format: biochemical, Human Papillomavirus type 16; details: after quenching excess ß-ME by NEM (2 mM)
# Protocol: as §1, with “(5′-[…]-3′” for “(5′-GCGTCGCTCGCTTCGCACGTGCGCC-3′”, “(5′-[…]-3′” for “(5′-GGG AGC GAG CGG GCG GGA G-3′”
# (§6) Construction of plasmids for generation of HPV16 L2 RNA, gel-shift and in vitro translation studies were carried as described with additional treatments shown in FIGS. 10A-10D
# [10] = biological target: [^35S]18-nt folate receptor-α mRNA cis-element; assay: Dissociation constant (KD) of GST-hnRNP-E1 or its mutant proteins for the 18-nt folate receptor-α mRNA cis-element; format: binding, human; details: L-Homocysteine 0 μM; listed as wild-type-like hnRNP-E1(G292A)-mutant
# Protocol: as §4, §5
# [11] = system: newly synthesized [^35S]hnRNP-E1 in placental 1584-HF cells; assay: Biosynthetic rate of hnRNP-E1 after protein transfection into placental 1584-HF cells; format: cell-based, human; details: protein transfected in placental 1584-HF cells
# From the text: as §2
# [12] = system: HPV16 L2 mRNA cis-element; assay: Gel-shift assay of hnRNP-E1 proteins with HPV16 L2 mRNA; format: binding, Human Papillomavirus type 16; details: absence of reducing agents; versus wild-type and G292A
# Protocol: as §3, §6
# [13] = biological target: T1, RNA-protein complexes of GST-hnRNP-E1 and 25-nt hnRNP-E1 mRNA cis-element; assay: Gel-shift assay: effect of thiols, iron and deferoxamine on RNA-protein complex formation; format: binding; details: fixed L-homocysteine
# Protocol: Other studies assessed the effect of iron(II) or iron(III) on homocysteine-induced RNA-protein interactions.
# Studies were conducted to evaluate the effect of iron(II) (as ferrous sulfate heptahydrate) or iron(III) (as ferric chloride hexahydrate) in modulating RNA-protein interactions during gel-shift assays in either the absence or presence of 10-mM glutathione. The iron preparation, either alone or with 50-μM of deferoxamine (DFO) to define the specificity of iron(II), was incubated first with glutathione and hnRNP-E1 before addition of other components of the reaction mixture. […] The samples were analyzed by PAGE and autoradiography overnight followed by densitometric analysis of the signals representing RNA-protein complexes.
# [14] = listed as wild-type-like hnRNP-E1(G292A)-mutant
molecule,measurement,setting,value
O[C@H](CS)[C@H](O)CS (racemic) [dithiothreitol],RNA-protein signals relative to L-homocysteine,[1],much stronger RNA-protein signals
NC1CCSC1=O (stereo not shown) [homocysteine thiolactone],hnRNP-E1 activation and mRNA-binding,[2],far less
NC(CCS)C(=O)O (racemic) [DL-homocysteine],hnRNP-E1 activation and mRNA-binding,[2],far less
N[C@@H](CCC(=O)N[C@@H](CS)C(=O)NCC(=O)O)C(=O)O [glutathione],RNA-protein signals relative to L-homocysteine,[1],no detectable signals
same,hnRNP-E1 activation and mRNA-binding,[2],far less
N[C@H](CCS)C(=O)O [D-homocysteine],hnRNP-E1 activation and mRNA-binding,[2],did not have any effect
CCN1C(=O)C=CC1=O [N-ethylmaleimide],basal translation of folate receptor-α mRNA in vitro,[3]; increasing NEM,diminished in a dose-dependent manner
same,effect on in vitro translation of hnRNP-E1,[4],progressive reduction in the amount of hnRNP-E1 translated
"OCCS [ß-ME, ß-mercaptoethanol]",RNA-protein signals relative to L-homocysteine,[1],much stronger RNA-protein signals
CSCC[C@H](N)C(=O)O [methionine],RNA-protein signals relative to L-homocysteine,[1],no detectable signals
same,hnRNP-E1 activation and mRNA-binding,[2],did not have any effect
Antisense: antisense oligonucleotides (5′-GGG AGC GAG CGG GCG GGA G-3′ SEQ ID NO:21) against the 25-nt hnRNP-E1 mRNA cis-element (antisense GGGAGCGAGCGGGCGGGAG; chemistry not given here),[^35S]cysteine-hnRNP-E1 protein,[5],0.62 ± 0.02 b fmol/mg protein/h
same,[^35S]cysteine-hnRNP-E1 protein,[5]; listed as antisense oligonucleotides,0.62 fmol/mg protein/h
same,effect on in vitro translation of hnRNP-E1,[4],dose-dependent inhibition of translation of hnRNP-E1
"N[C@@H](CS)C(=O)O [L-Cysteine, L-cysteine]",RNA-protein signals relative to L-homocysteine,[1],far weaker
same,hnRNP-E1 activation and mRNA-binding,[2],far less
"GST-hnRNP-E1(G292A): control mutant, glycine-292 mutated to alanine; behaved similar to wild-type hnRNP-E1",[^35S]cysteine-folate receptor,[6],1.79 ± 0.13 b fmol/mg protein/h
same,[^35S]cysteine-folate receptor,[6]; [14],1.79 fmol/mg protein/h
same,RNA-protein gel-shift signal,[7],no RNA-protein gel-shift signals
same,Kd,[8],2.02 nM
same,HPV16 L2 protein signal,[9],insignificant reduction of HPV16 L2 protein signal
same,Kd,[10],1.57 nM and 1.5 nM
same,[^35S]cysteine-hnRNP-E1,[11],1.03 ± 0.21 b fmol/mg protein/h
same,[^35S]cysteine-hnRNP-E1,[11]; [14],1.03 fmol/mg protein/h
Scrambled: scrambled oligonucleotides (5′-GCGTCGCTCGCTTCGCACGTGCGCC-3′ SEQ ID NO:20) (GCGTCGCTCGCTTCGCACGTGCGCC; chemistry not given here),[^35S]cysteine-hnRNP-E1 protein,[5],1.01 ± 0.03 a fmol/mg protein/h
same,[^35S]cysteine-hnRNP-E1 protein,[5]; listed as scrambled-oligonucleotides,1.0 fmol/mg protein/h
same,effect on in vitro translation of hnRNP-E1,[4],failed to quench the translation of hnRNP-E1
hnRNP-E1(C54S)-mutant: hnRNP-E1 with cysteine-54 replaced by serine (SEQ ID NO:3),translation of folate receptor-α,[3]; presence of 2-mM NEM,maximally increased
same,interaction with HPV16 L2 mRNA on gel-shift assays,[12],greater interaction
"O.O.O.O.O.O.[Cl-].[Cl-].[Cl-].[Fe+3] [iron(III), ferric chloride hexahydrate]",effect on RNA-complex formation,[13]; 10-mM glutathione,comparable dose-dependent reduction in RNA-complex formation
same,effect on formation of RNA-protein complexes,[13]; no glutathione,no such influence

# Reference: patent US10093706B2, “Dominant positive hnRNP-E1 polypeptide compositions and methods” (Indiana University Research and Technology Corporation, priority 2017, dated 2018)
